Measurements as given in publication PMC4570970 (ACS chemical biology, 2015).

Molecular target: T1, 5-epi-aristolochene synthase (TEAS) (Nicotiana tabacum, UniProt Q40577)
T1 sequence (Q40577 1-548): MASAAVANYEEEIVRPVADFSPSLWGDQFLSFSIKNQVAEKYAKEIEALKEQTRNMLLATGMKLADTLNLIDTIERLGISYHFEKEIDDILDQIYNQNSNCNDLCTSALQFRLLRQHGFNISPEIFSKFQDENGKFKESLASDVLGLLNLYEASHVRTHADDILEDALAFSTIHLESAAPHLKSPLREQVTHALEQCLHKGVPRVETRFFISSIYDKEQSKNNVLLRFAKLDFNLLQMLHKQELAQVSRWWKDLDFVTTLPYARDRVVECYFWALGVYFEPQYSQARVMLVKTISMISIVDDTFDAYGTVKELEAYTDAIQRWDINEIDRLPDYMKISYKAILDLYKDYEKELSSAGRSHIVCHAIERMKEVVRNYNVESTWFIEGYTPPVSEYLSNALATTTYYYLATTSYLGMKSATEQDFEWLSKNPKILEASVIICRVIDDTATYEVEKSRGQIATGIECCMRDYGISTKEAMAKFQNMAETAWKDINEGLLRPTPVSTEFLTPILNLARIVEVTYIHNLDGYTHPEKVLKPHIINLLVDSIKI
Test: crystal structure
Assay type: biochemical

Ki: 380 nM
SMILES: C/C(=C\COP(=O)(O)OP(=O)(O)O)CC/C=C(\C)CNc1ccccc1 [compound 4, AGPP]
